The Tmax is the time from dosing to the highest level.

Data set [1] can be described thus: Safety: treatment-emergent adverse events up to 30 days after surgery (PLAY trial). In kind it is in vivo. The following applies: age group 1 (12 to <17 years), spine surgery; liposomal bupivacaine 4 mg/kg or bupivacaine HCl 2 mg/kg. As for the experimental part: • Methods: A multicenter, open-label, phase 3, randomized trial (PLAY; NCT03682302) was conducted, with primary and secondary objectives evaluating the pharmacokinetics and safety, respectively, of multivesicular liposomal bupivacaine (EXPAREL®) in pediatric patients (age group 1: 12 to <17 years; age group 2: 6 to <12 years). The hypothesis was that the pharmacokinetics and safety profiles would support the safety of EXPAREL® (also referred to herein as “multivesicular liposomal bupivacaine” or “liposomal bupivacaine”) in pediatric patients. Age group 1 received 4 mg/kg liposomal bupivacaine or 2 mg/kg bupivacaine hydrochloride (HCl) at the end of spine surgery; all patients in age group 2 received liposomal bupivacaine (4 mg/kg) at the end of spine or cardiac surgery. […]
The sample size was determined on the basis of the number of patients needed to characterize the PK profile of liposomal bupivacaine in pediatric patients per FDA requirements. […] Descriptive statistics (number, mean, standard deviation [SD], median, minimum, maximum) were calculated for continuous data; tabulations (number and percentage) were calculated for categorial data. PK analysis included pediatric patients who underwent surgery, received treatment, and provided at least 1 blood sample for quantifiable plasma concentration measurement. PK measures were assessed by noncompartmental analysis. […]

A short description of data set [2]: Bupivacaine PK after local infiltration, noncompartmental analysis (PLAY phase 3 trial, NCT03682302). The arrangement: species or system human. To be noted: in vivo; for AUC(0-inf): AUC0-∞. As for the experimental part: • Methods: A multicenter, open-label, phase 3, randomized trial (PLAY; NCT03682302) was conducted, with primary and secondary objectives evaluating the pharmacokinetics and safety, respectively, of multivesicular liposomal bupivacaine (EXPAREL®) in pediatric patients (age group 1: 12 to <17 years; age group 2: 6 to <12 years). The hypothesis was that the pharmacokinetics and safety profiles would support the safety of EXPAREL® (also referred to herein as “multivesicular liposomal bupivacaine” or “liposomal bupivacaine”) in pediatric patients. Age group 1 received 4 mg/kg liposomal bupivacaine or 2 mg/kg bupivacaine hydrochloride (HCl) at the end of spine surgery; all patients in age group 2 received liposomal bupivacaine (4 mg/kg) at the end of spine or cardiac surgery. […] In age group 2, 100% and 31% of patients undergoing spine (n=5) and cardiac (n=9) surgery experienced TEAEs, respectively. TEAEs were generally mild or moderate, with no discontinuations due to TEAEs or deaths. […] TEAEs were mild to moderate, supporting the safety of liposomal bupivacaine in pediatric patients undergoing spine or cardiac surgery. Study Design
This study was performed in 2 parts. Part 1 evaluated PK and safety of liposomal bupivacaine. Part 2 followed part 1 and further evaluated the safety of liposomal bupivacaine. For both parts of the study, pediatric patients aged 12 to <17 years (age group 1) were analyzed separately from patients aged 6 to <12 years (age group 2), per FDA guidance for safety studies in pediatric patients.^25
In age group 1, eligible pediatric patients aged 12 to <17 years undergoing spine surgery were randomized 1:1 to receive a single dose of either liposomal bupivacaine (4 mg/kg up to 266 mg) diluted with normal saline, or bupivacaine HCl (2 mg/kg up to 175 mg) via local infiltration at the end of surgery. Randomization was performed with a centralized randomization system using a unique subject identifier and unique random code identifier. In age group 2, all eligible pediatric patients aged 6 to <12 years of age undergoing either spine or cardiac surgery received liposomal bupivacaine (4 mg/kg up to 266 mg) via local infiltration at the end of surgery. Dosing for both age groups was weight based. Guidelines and training were shared with the participating surgeons to ensure reliability in infiltration techniques.
Across age groups and surgical procedures, surgeons administered liposomal bupivacaine or bupivacaine HCl via local infiltration prior to wound closure, with liposomal bupivacaine and bupivacaine HCl administered in small increments into the deep and superficial layers along the entire length of the incision site to ensure uniform drug distribution. Use of intraoperative opioids, acetaminophen, or other nonsteroidal anti-inflammatory drugs as well as postsurgical pain medication in cases of insufficient analgesia during and after surgery was permitted in accordance with the standard of care at each site. Use of local anesthetics within 96 hours after administration of liposomal bupivacaine was prohibited.
The primary objective was to analyze PK of liposomal bupivacaine, including area under the plasma concentration-time curve (AUC), maximum plasma concentration (Cmax), time to Cmax (Tmax), apparent elimination half-life (t1/2), apparent clearance (CL/F), and apparent volume of distribution (Vd/F). To assess plasma concentration of bupivacaine, 8 blood samples were collected up to 42-60 hours after spine surgery and up to 64-72 hours after cardiac surgery in each patient. For both procedures, the first 4 samples were collected ˜15, ˜30, ˜45, and 60-75 minutes after liposomal bupivacaine administration. The last 4 samples were collected in time windows rather than precise time points. For spine surgery, sample windows were 2-3,10-18, 24-36, and 42-60 hours after receiving liposomal bupivacaine or bupivacaine HCl. […]

Data set [3] can be described thus: Bupivacaine PK, nonlinear mixed-effect modeling (population PK method). In kind it is in vivo, human. As for the experimental part: The sample size was determined on the basis of the number of patients needed to characterize the PK profile of liposomal bupivacaine in pediatric patients per FDA requirements. Authorized staff or a designee obtained the randomization assignment once eligible patients were at the clinic site for surgery. Descriptive statistics (number, mean, standard deviation [SD], median, minimum, maximum) were calculated for continuous data; tabulations (number and percentage) were calculated for categorial data. PK analysis included pediatric patients who underwent surgery, received treatment, and provided at least 1 blood sample for quantifiable plasma concentration measurement. PK measures were assessed by noncompartmental analysis. A separate PK analysis was conducted using nonlinear mixed-effect modeling (population PK method) with the spine surgery cohorts combined. The safety analysis included pediatric patients who underwent surgery and received treatment. The incidence of patients reporting TEAEs was tabulated by the number and percentage of patients reporting the TEAE. All analyses and tabulations were performed using SAS, version 9.4; PK descriptive statistics were performed using Sigmastat and Microsoft Excel.
Across age groups, trends in PK parameters between liposomal bupivacaine and bupivacaine HCl using the population PK model were consistent with those observed with noncompartmental analysis (Table 4). The PK of bupivacaine in both age groups and surgery cohorts were adequately described by a linear 2-compartment PK model with fast and slow absorption routes for liposomal bupivacaine. For each treatment (liposomal bupivacaine or bupivacaine HCl), the Cmax in 12-year-old patients was predicted to be similar to that in 17-year-old patients in pediatric patients undergoing spine surgery.

Structures are written as SMILES. Structures can show the parent of a compound that is named as a salt.

On to `CCCCN1CCCCC1C(=O)Nc1c(C)cccc1C` (stereo not drawn) [bupivacaine HCl, bupivacaine hydrochloride], for which the “discontinuations due to TEAEs or on-study deaths” value in data set [1] is reported as “no discontinuations due to TEAEs or on-study deaths”. Moreover, the time of peak concentration (Tmax) in data set [2] (human) is approximately 1 h; in data set [2] (human, 2 mg/kg), 0.9 h. The AUC(0-inf) turned out to be 5060 ng·h/mL in data set [2] (human, 2 mg/kg, Geometric mean); 5710 ng·h/mL in data set [2] (human, 2 mg/kg, Mean); 6400 ng·h/mL in data set [3] (human, plasma, population PK method, spine surgery: liposomal bupivacaine 4 mg/kg (6 to <17 y, n = 18) or bupivacaine HCl 2 mg/kg (12 to <17 y, n = 15), read-out: AUC0-∞, geometric mean). Besides, the Vd/F is 201 L in data set [2] (human, 2 mg/kg, Geometric mean); 227 L in data set [2] (human, 2 mg/kg, Mean); 153 L in data set [3] (human, plasma, population PK method, spine surgery: liposomal bupivacaine 4 mg/kg (6 to <17 y, n = 18) or bupivacaine HCl 2 mg/kg (12 to <17 y, n = 15), read-out: Vss/F, geometric mean). Besides, the half-life in data set [2] (human, 2 mg/kg, t1/2, Geometric mean) is 7.4 h; in data set [2] (human, 2 mg/kg, t1/2, Mean) it was 8.4 h; in data set [3] (human, plasma, population PK method, spine surgery: liposomal bupivacaine 4 mg/kg (6 to <17 y, n = 18) or bupivacaine HCl 2 mg/kg (12 to <17 y, n = 15), read-out: t1/2, geometric mean (converted)) it was 6.5 h. For the same compound, the Cmax in data set [2] (human, age group 1 (12 to <17 years), spine surgery, local infiltration, liposomal bupivacaine 4 mg/kg (n = 15) or bupivacaine HCl 2 mg/kg (n = 15), read-out: Cmax, Geometric mean) worked out at 488 ng/mL; in data set [3] (human, plasma, population PK method, spine surgery: liposomal bupivacaine 4 mg/kg (6 to <17 y, n = 18) or bupivacaine HCl 2 mg/kg (12 to <17 y, n = 15), read-out: Early Cmax, geometric mean) it was 444 ng/mL. Besides, the “CL/F, Mean” value in data set [2] was found to be 20.5 L/h. The “CL/F, geometric mean” value is 18.9 L/h in data set [2] and 16.8 L/h in data set [3] (population PK method, spine surgery: liposomal bupivacaine 4 mg/kg (6 to <17 y, n = 18) or bupivacaine HCl 2 mg/kg (12 to <17 y, n = 15)). Besides, the “Median predicted early Tmax” value in data set [3] (population PK model, spine surgery) is 0.667 h.

Values taken from patent publication US11931459B2, “Treatment of pain in pediatric patients by administration of sustained-release liposomal anesthetic compositions” (Pacira Pharmaceuticals, Inc., priority 2021, dated 2024).
